This is an account of results in BindingDB's records for doi:10.1021/jm049864b (Boehringer Ingelheim (Canada), 2004).

This experiment deals with T1, Genome polyprotein [1027-1206,R1052K]/[1678-1691] (Hepatitis C virus genotype 1b (isolate Japanese), UniProt P26662+Q9WMX2, R1052K).
T1 construct: 1027-1206; 1678-1691
Nature of the experiment: HCV Protease Inhibition Assay. As to conditions: pH 7.5; 23 °C.

In general, IC50 refers to the point on the concentration scale where inhibition reaches its midpoint. Read a low IC50 as inhibition by little substance.

Molecules are shown by their SMILES. Where a SMILES comes first, the peptide text is derived from it. [ ]: non-standard residue; d: D form. Nva = CCC[C@H](N)C(=O)O

T1 sequence (Q9WMX2 1027-1206, looked up, stated change not applied, other chains not shown): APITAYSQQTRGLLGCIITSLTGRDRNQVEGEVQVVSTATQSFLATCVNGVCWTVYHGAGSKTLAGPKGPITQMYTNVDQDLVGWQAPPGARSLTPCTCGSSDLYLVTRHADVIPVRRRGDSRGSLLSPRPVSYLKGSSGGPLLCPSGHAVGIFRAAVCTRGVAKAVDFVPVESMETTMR

As for `CCC[C@H](NC(=O)[C@@H]1CCCN1C(=O)[C@@H](NC(=O)[C@@H](NC(=O)[C@H](CC(=O)O)NC(=O)[C@H](CC(=O)O)NC(C)=O)[C@@H](C)CC)C(C)C)C(=O)O` [(2S)-2-{[(2S)-1-[(2S)-2-[(2S)-2-[(3S)-3-[(3S)-3-acetamido-3-formamidopropanoic acid]-3-formamidopropanoic acid]-3-methylpentanamido]-3-methylbutanoyl]pyrrolidin-2-yl]formamido}pentanoic acid] (Ac-DDIVP[Nva]-OH), the IC50 was determined as 150 µM.
